Data as given in patent US11633421B2, “Use of NAD precursors for improving maternal health and/or offspring health” (UNIVERSITY OF IOWA RESEARCH FOUNDATION, priority 2016, dated 2023).

Key:
Type in all cases: in vivo, mice
[1] = Milk production, oxytocin-induced milk collection (Example 1); conditions: collected volume per mother after oxytocin, days 0, 7, 14 and 21 after partum; NC+NR vs NC
Protocol: Female C57BL/6N mice were raised in 12 hour light:dark cycles on Teklad 2920X chow (NC). For 12 weeks prior to mating with a single C57BL/6N male, females were on either NC (n=4) or NC+NR (n=4). Females were maintained on the same diet through gestation and weaning, which was at 21 days after birth.
To determine the production of milk, we separated mothers were separated from pups for several hours and provided an injection of oxytocin on days 0, 7, 14 and 21 after partum. Milk was carefully collected by pipetting and the collected volume per mother was plotted. The galactogogue activity of NR was striking and entirely unexpected.

[2] = Post-partum NR supplementation: milk volume and macronutrient density
Protocol: FIGS. 8A-C. Milk from NR-supplemented mothers had normal macronutrient density. Oxytocin-induced milk collection at indicated days. Protein (FIG. 8A), carbohydrate (FIG. 8B) and lipid concentration (FIG. 8C) was not changed. A series of in vivo murine experiments were performed to evaluate the effects of nicotinamide riboside on milk production. […] As shown in FIGS. 8A-C, the concentration of protein, carbohydrate and fat in the milk of NR-supplemented mothers was normal. Because there is approximately 2-fold more milk produced by NR-supplemented mothers, NR-supplemented mothers transmit more calories to their offspring, which thereby assists maternal weight loss and neonatal development. In FIG. 9A, the concentration of NAD precursor vitamins in the milk from control mothers and NR-supplemented mothers was determined. […] Oral NR was labeled with heavy atoms in the nicotinamide and ribose moieties of NR and this was provided to lactating mothers by gavage.

[3] = system: brain derived neurotrophic factor (BDNF); test: BDNF in milk; conditions: NR-supplemented mothers
Protocol: FIG. 10. NR supplemented mothers produce milk with higher brain-derived neurotrophic factor. Milk from NC and NR mothers was tested. […] Based on the advanced brain and neurobehavioral development that was observed, it was investigated whether NR-supplemented mothers produced more BDNF in their milk.

[4] = Mammary gland development (size of mammary tissue); conditions: NR-supplemented vs non-supplemented mothers
Excerpt: FIGS. 14A-B. Postpartum NR supplementation promotes mammary gland development (n=5 mice per group) (FIG. 14A). NR increases heat loss by increasing expression of UCP1 (FIG. 14B). […] In addition, the size of the mammary tissue itself is greater in NR-supplemented mothers than in non-supplemented mothers (FIG. 14A).

PEPCK = test: Pup liver gluconeogenic gene expression; conditions: males and females whose mothers were NR-supplemented
Excerpt: FIGS. 17A-C. 22 day old pups of NR-supplemented mothers have improved post-fasting glucose homoeostasis with higher gluconeogenic gene expression and higher hepatic glycogen storage. Not only are the offspring of NR-supplemented mothers a bit bigger, they also have better glycemic control. This is due to better gluconeogenic gene expression and higher glycogen storage. The order of the bars from left to right are: males of normal chow (NC) mothers (white with light grey outline), followed by males of NR-supplemented mothers (filled light grey), followed by females of NC mothers (white with dark grey outline), followed by females of NR-supplemented mothers (filled dark grey). Earlier it was shown that supplementation of females during their pregnancy and during the lactation period with NR produced pups with better glycemic control. […] Particularly as NR is not directly transmitted to offspring of NR-supplemented mothers, none of these effects of maternally supplemented NR could have been anticipated.

[5] = Dark/light chamber test of offspring
Excerpt: FIGS. 20A-C. […] The order of the bars from left to right are: males of normal chow (NC) mothers (white with light grey outline), followed by males of NR-supplemented mothers (filled light grey), followed by females of NC mothers (white with dark grey outline), followed by females of NR-supplemented mothers (filled dark grey). It was considered interesting that males and female adults of NR-supplemented mothers maintain distinct physical advantages into adulthood on the basis of the mother's micronutrition. […] This could be interpreted either as a simple increase in activity and/or a less anxious state of being.

[6] = Elevated plus maze test of offspring; conditions: 85 day old adult offspring; males reached statistical significance
Excerpt: Males are not afraid to “stick their head out”. The order of the bars from left to right are: males of normal chow (NC) mothers (white with light grey outline), followed by males of NR-supplemented mothers (filled light grey), followed by females of NC mothers (white with dark grey outline), followed by females of NR-supplemented mothers (filled dark grey). At 64 days past the mother's intervention, the willingness of 85 day old adult offspring of mice from this experiment (NC or NR-supplemented) to put their heads out in an elevated plus maze was tested. […] The clear indication is that maternal NR produces improvements in maternal behavior and/or qualitative and/or quantitative improvements in lactation sufficient to improve the development and health of offspring. The ability of the mother's 21 day micronutrition to produce beneficial effects on her offspring into adulthood was not at all anticipated.

[7] = Balance beam test of offspring; conditions: 85 days old male and female offspring
Excerpt: FIGS. 22A-C. 64 days after their mother's intervention, 85-day-old adults of NR-supplemented mothers have better performance on a balance beam. They cross a beam balance faster (untrained); they slip fewer times; and they almost never grip the beam with their tail. […] The order of the bars from left to right are: males of normal chow (NC) mothers (white with light grey outline), followed by males of NR-supplemented mothers (filled light grey), followed by females of NC mothers (white with dark grey outline), followed by females of NR-supplemented mothers (filled dark grey). The improved physical functions of adult offspring of NR-supplemented mothers were not confined to advantages in making less anxious choices about where to move in space, light and dark. At 85 days old, when mice were again 64 days past their mother's intervention—again all mice were on NC show for 64 days—their untrained ability to cross a balance beam was tested. […] This was not anticipated.

[8] = Body composition of adult offspring; conditions: 90 days old
Protocol: FIGS. 23A-C. 69 days after their mother's intervention, 90 day-old adult offspring of NR-supplemented mothers have less fat mass. The order of the bars from left to right are: males of normal chow (NC) mothers (white with light grey outline), followed by males of NR-supplemented mothers (filled light grey), followed by females of NC mothers (white with dark grey outline), followed by females of NR-supplemented mothers (filled dark grey). At 90 days old, body composition analysis was performed on the mice. […] There is no effect on the total amount of lean mass (23C). Particularly because the maternal intervention produced somewhat bigger weanlings with more fat and lean mass, the protection against age-induced weight gain was unanticipated.

[9] = supplementing post-gestational mothers

With `NC(=O)c1ccc[n+]([C@@H]2O[C@H](CO)[C@@H](O)[C@H]2O)c1` [NR, nicotinamide riboside] the “increase in milk production” value [1] was 2-3 x, the “concentration of carbohydrate in the milk” value ([2]; NR-supplemented mothers) was “normal” and the “concentration of fat in the milk” value ([2]; NR-supplemented mothers) was “normal”. For the same compound, the “concentration of protein in the milk” value ([2]; NR-supplemented mothers) was “normal”, the “milk produced vs non-supplemented mothers” value [2, 9] was “approximately 2 fold” and the milk production [2, 9] was “large increase”. For the same compound, the “concentration of BDNF in the milk vs non-supplemented mothers” value [3] was 2 fold, the “size of the mammary tissue” value [4] was “greater” and the “liver expression of the gluconeogenic bypass gene PEPCK” value (PEPCK) was “higher”. For the same compound, the “time in the light” value ([5]; 75 day-old female offspring) was “spend more time in the light”, the “time in the light chamber of a dark/light chamber” value ([5]; 75 days of age, offspring of NR-supplemented mothers) was “more willing to spend time in the light chamber” and the “willingness to put heads out in an elevated plus maze” value [6] was “higher willingness”. For the same compound, the “slips on balance beam” value [7] was “fewer slips”, the “time to cross a balance beam (untrained)” value [7] was “cross faster” and the “use of tail to grip the balance beam” value [7] was “virtually no use of their tails”. For the same compound, the “total amount of lean mass of adult offspring” value [8] was “no effect”, the “body size of adult offspring” value ([8]; male offspring) was “slightly smaller” and the “adipose tissue of adult offspring” value ([8]; males and females, 69 days after mother's intervention) was “less adipose tissue”.
